Data published in ChEMBL document CHEMBL1156271, “Discovery and SAR of novel pyrazole-based thioethers as cathepsin S inhibitors: part 1” (Bioorg Med Chem Lett, 2010).

target: T1, Cathepsin S (Homo sapiens, UniProt P25774); assay: Inhibition of human cathepsin S
T1 sequence (P25774 whole entry): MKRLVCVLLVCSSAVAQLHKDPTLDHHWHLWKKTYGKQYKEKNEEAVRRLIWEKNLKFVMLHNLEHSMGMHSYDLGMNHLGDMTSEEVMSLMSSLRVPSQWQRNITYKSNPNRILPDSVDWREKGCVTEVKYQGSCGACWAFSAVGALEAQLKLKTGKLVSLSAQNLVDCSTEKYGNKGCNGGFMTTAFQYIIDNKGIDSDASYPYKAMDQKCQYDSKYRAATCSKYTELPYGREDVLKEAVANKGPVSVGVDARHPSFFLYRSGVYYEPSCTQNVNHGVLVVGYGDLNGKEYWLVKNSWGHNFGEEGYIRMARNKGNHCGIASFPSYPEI

Row | IC50 [nM] | SMILES
1 | 55 | CS(=O)(=O)N1CCc2c(c(-c3ccc(C(F)(F)F)c(SCCN4CCC5CCCCC5C4)c3)nn2CCCN2CCC(N3CCCC3=O)CC2)C1 (centres undefined)
2 | 960 | CS(=O)(=O)N1CCc2c(c(-c3ccc(Cl)c(SCCO)c3)nn2CCCN2CCOCC2)C1

target: T1, Cathepsin S; assay: Inhibition of cathepsin S in human JY cells assessed as inhibition of invariant chain degradation; type: cell-based

Row | IC50 [nM] | SMILES
3 | 950 | CS(=O)(=O)N1CCc2c(c(-c3ccc(C(F)(F)F)c(SCCN4CCC(c5ccccc5)CC4)c3)nn2CCCN2CCC(N3CCCC3=O)CC2)C1
4 | 320 | CS(=O)(=O)N1CCc2c(c(-c3ccc(C(F)(F)F)c(SCCN4CCCCC4)c3)nn2CCCN2CCC(N3CCCC3)CC2)C1
5 | 460 | CS(=O)(=O)N1CCc2c(c(-c3ccc(C(F)(F)F)c(SCCN4CCC5CCCCC5C4)c3)nn2CCCN2CCC(N3CCCC3=O)CC2)C1 (centres undefined)
6 | 3570 | CS(=O)(=O)N1CCc2c(c(-c3ccc(C(F)(F)F)c(SCCN4CCCCC4)c3)nn2CCCN2CCOCC2)C1
7 | 810 | CC1CCN(CCSc2cc(-c3nn(CCCN4CCC(N5CCCC5=O)CC4)c4c3CN(S(C)(=O)=O)CC4)ccc2C(F)(F)F)CC1
8 | 130 | CN1CCN(CCSc2cc(-c3nn(CCCN4CCC(N5CCCC5=O)CC4)c4c3CN(S(C)(=O)=O)CC4)ccc2C(F)(F)F)CC1
9 | 460 | CS(=O)(=O)N1CCc2c(c(-c3ccc(C(F)(F)F)c(SCCNCc4ccccc4)c3)nn2CCCN2CCC(N3CCCC3=O)CC2)C1
10 | 80 | CS(=O)(=O)N1CCc2c(c(-c3ccc(C(F)(F)F)c(SCCN4CCCC4)c3)nn2CCCN2CCC(N3CCCC3=O)CC2)C1
11 | 470 | CS(=O)(=O)N1CCc2c(c(-c3ccc(C(F)(F)F)c(SCCN4CCCCC4)c3)nn2CCCN2CCCC2)C1
12 | 680 | CS(=O)(=O)N1CCc2c(c(-c3ccc(C(F)(F)F)c(SCCN4CCOCC4)c3)nn2CCCN2CCC(N3CCCC3=O)CC2)C1
13 | 330 | CC(C)(C)C1CCN(CCSc2cc(-c3nn(CCCN4CCC(N5CCCC5=O)CC4)c4c3CN(S(C)(=O)=O)CC4)ccc2C(F)(F)F)CC1
14 | 350 | CS(=O)(=O)N1CCc2c(c(-c3ccc(C(F)(F)F)c(SCCN4CCC(O)CC4)c3)nn2CCCN2CCC(N3CCCC3=O)CC2)C1
